What all share (type): in vivo
In one test the test system is Botrytis cinerea. Put plainly: Botrytis test (beans)/preventive, Example I: biological control agent sprayed first, (I-1) 4 h later. Conditions: (I-1) alone 12.5 ppm a.i., lesion size evaluated 2 days after inoculation. The procedure:
(§1) To produce a suitable preparation of active compound, 1 part by weight of the dithiino-tetracarboximide is mixed with 24.5 parts by weight of acetone, 24.5 parts by weight of dimethylacetamide and 1 part by weight of emulsifier alkylaryl polyglycol ether. The concentrate is diluted with water to the desired concentration.
BioNem WP®, a wettable powder formulation containing the bacteria Bacillus firmus, is mixed and diluted with water to the desired concentration.
Young plants are sprayed with the aqueous preparation of the biological control agents, e.g. BioNem WP®, at the stated rate of application. 4 hours later and after the spray coating has dried on, the plants are sprayed with the preparation of (I-1) 2,6-dimethyl-1H,5H-[1,4]dithiino[2,3-c:5,6-c′]dipyrrole-1,3,5,7(2H,6H)-tetrone at the stated rate of application. The next day the plants are inoculated by placing 2 small pieces of agar covered with growth of Botrytis cinerea on each leaf. The inoculated plants are placed in a darkened chamber at 20° C. and a relative atmospheric humidity of 100%. 2 days after the inoculation, the size of the lesions on the leaves is evaluated. 0% means an efficacy which corresponds to that of the untreated control, while an efficacy of 100% means that no disease is observed.

The subject of test [1] is Phytophthora infestans. The conditions noted are these: tomatoes; (I-1) alone 50 ppm a.i.; evaluated 3 days after inoculation.
A further test relates to Sphaerotheca fuliginea. Put plainly: Sphaerotheca test (cucumbers)/preventive, Example F: biological control agent sprayed first, (I-1) 4 h later. Conditions: (I-1) alone 50 ppm a.i., evaluated 7 days after inoculation. Here is the method: as §1
(§2) Serenade® WPO, a wettable powder formulation containing the bacteria Bacillus subtilis (variety QST 713), is mixed and diluted with water to the desired concentration.
Young plants are sprayed with the aqueous preparation of the biological control agents, e.g. Serenade® WPO, at the stated rate of application. 4 hours later and after the spray coating has dried on, the plants are sprayed with the preparation of (I-1) 2,6-dimethyl-1H,5H-[1,4]dithiino[2,3-c:5,6-c′]dipyrrole-1,3,5,7(2H,6H)-tetrone at the stated rate of application. The next day the plants are inoculated with an aqueous spore suspension of Sphaerotheca fuliginea. The plants are then placed in a greenhouse at approximately 23° C. and a relative atmospheric humidity of approximately 70%. The test is evaluated 7 days after the inoculation. 0% means an efficacy which corresponds to that of the untreated control, while an efficacy of 100% means that no disease is observed.

The subject of test [2] is Phytophthora infestans. Conditions: tomatoes, evaluated 3 days after inoculation.
In test [3] the test system is Alternaria solani. Put plainly: Alternaria test (tomatoes)/preventive, Example D: (I-1) sprayed first, biological control agent 4 h later. The conditions noted are these: (I-1) alone 25 ppm a.i., evaluated 3 days after inoculation. Here is the method: as §1
Shemer, a water dispersible granule formulation containing the yeast Metschnikowia fructicola, is mixed and diluted with water to the desired concentration.
Young plants are sprayed with the preparation of (I-1) 2,6-dimethyl-1H,5H-[1,4]diithiino[2,3-c:5,6-c′]dipyrrole-1,3,5,7(2H,6H)-tetrone at the stated rate of application. 4 hours later and after the spray coating has dried on, the plants are sprayed with the aqueous preparation of the biological control agents, e.g. Shemer, at the stated rate of application. The next day the plants are inoculated with an aqueous spore suspension of Alternaria solani. The plants are then placed in an incubation cabinet at approximately 20° C. and a relative atmospheric humidity of 100%. The test is evaluated 3 days after the inoculation. 0% means an efficacy which corresponds to that of the untreated control while an efficacy of 100% means that no disease is observed.

Test [4] has as its system Alternaria solani. Put plainly: Alternaria test (tomatoes)/preventive, Example H: biological control agent sprayed first, (I-1) 4 h later. The conditions noted are these: (I-1) alone 25 ppm a.i., evaluated 3 days after inoculation. The procedure:
as §1, §2
Young plants are sprayed with the aqueous preparation of the biological control agents, e.g. Serenade® WPO, at the stated rate of application. 4 hours later and after the spray coating has dried on, the plants are sprayed with the preparation of (I-1) 2,6-dimethyl-1H,5H-[1,4]dithiino[2,3-c:5,6-c′]dipyrrole-1,3,5,7(2H,6H)-tetrone at the stated rate of application. The next day the plants are inoculated with an aqueous spore suspension of Alternaria solani. The plants are then placed in an incubation cabinet at approximately 20° C. and a relative atmospheric humidity of 100%. The test is evaluated 3 days after the inoculation. 0% means an efficacy which corresponds to that of the untreated control while an efficacy of 100% means that no disease is observed.

Test [5] concerns Venturia inaequalis. Put plainly: Venturia test (apples)/preventive, Example C: (I-1) sprayed first, biological control agent 4 h later. Conditions: (I-1) alone 25 ppm a.i., evaluated 10 days after inoculation. The procedure:
as §1, §2
Young plants are sprayed with the preparation of (I-1) 2,6-dimethyl-1H,5H-[1,4]dithiino[…]dipyrrole-1,3,5,7(2H,6H)-tetrone at the stated rate of application. 4 hours later and after the spray coating has dried on, the plants are sprayed with the aqueous preparation of the biological control agents, e.g. Serenade® WPO, at the stated rate of application. The next day the plants are inoculated with an aqueous conidia suspension of the causal agent of apple scab (Venturia inaequalis) and then remain for 1 day in an incubation cabinet at approximately 20° C. and a relative atmospheric humidity of 100%. The plants are then placed in a greenhouse at approximately 21° C. and a relative atmospheric humidity of approximately 90%. The test is evaluated 10 days after the inoculation. […]

Test [6] deals with Venturia inaequalis. Put plainly: Venturia test (apples)/preventive, Example G: biological control agent sprayed first, (I-1) 4 h later. Conditions: (I-1) alone 12.5 ppm a.i., evaluated 10 days after inoculation. Here is the method:
as §1, §2
Young plants are sprayed with the aqueous preparation of the biological control agents, e.g. Serenade® WPO, at the stated rate of application. 4 hours later and after the spray coating has dried on, the plants are sprayed with the preparation of (I-1) 2,6-dimethyl-1H,5H-[1,4]dithiino[2,3-c:5,6-c′]dipyrrole-1,3,5,7(2H,6H)-tetrone at the stated rate of application. The next day the plants are inoculated with an aqueous conidia suspension of the causal agent of apple scab (Venturia inaequalis) and then remain for 1 day in an incubation cabinet at approximately 20° C. and a relative atmospheric humidity of 100%. The plants are then placed in a greenhouse at approximately 21° C. and a relative atmospheric humidity of approximately 90%. The test is evaluated 10 days after the inoculation. […]

The subject of a further test is Sphaerotheca fidiginea. Put plainly: Sphaerotheca test (cucumbers)/preventive, Example B: (I-1) sprayed first, biological control agent 4 h later. Conditions: (I-1) alone 50 ppm a.i., evaluated 7 days after inoculation. Here is the method:
as §1, §2
Young plants are sprayed with the preparation of (I-1) 2,6-dimethyl-1H,5H-[1,4]dithiino[…]dipyrrole-1,3,5,7(2H,6H)-tetrone at the stated rate of application. 4 hours later and after the spray coating has dried on, the plants are sprayed with the aqueous preparation of the biological control agents, e.g. Serenade® WPO, at the stated rate of application. The next day the plants are inoculated with an aqueous spore suspension of Sphaerotheca fidiginea. The plants are then placed in a greenhouse at approximately 23° C. and a relative atmospheric humidity of approximately 70%. The test is evaluated 7 days after the inoculation. 0% means an efficacy which corresponds to that of the untreated control, while an efficacy of 100% means that no disease is observed.

1 compound from patent publication US8658565B2 (priority 2010, dated 2014) can be followed below.

Read-outs that look alike come from different tables or passages of the source.

Take `Cn1c(=O)c2sc3c(=O)n(C)c(=O)c3sc2c1=O` [(I-1), 2,6-dimethyl-1H,5H-[1,4]dithiino[2,3-c:5,6-c′]dipyrrole-1,3,5,7(2H,6H)-tetrone]: the “Efficacy in % found” value in the test on Botrytis cinerea is 4%; with Phytophthora infestans [1], 84%; in the test with Sphaerotheca fuliginea, 0%; in the test with Phytophthora infestans [2] ((I-1) alone 12.5 ppm a.i.), 15%; in the test on Phytophthora infestans [2] ((I-1) alone 25 ppm a.i.), 40%; with Alternaria solani [3], 35%. Moreover, the “Efficacy in % found” value with Alternaria solani [4] turned out to be 21%; in the test with Venturia inaequalis [5], 49%; with Venturia inaequalis [6], 48%; with Sphaerotheca fidiginea, 0%.
